Results as given in patent publication US7435744B2, “Piperidine derivatives as NMDA receptor antagonists” (Gedeon Richter Vegyeszeti Gyar RT, priority 2001, dated 2008).
Read-outs that look alike come from different tables or passages of the source.

Columns and labels:
NMRI mice = assay: Mouse formalin test (second phase) for in vivo efficacy; conditions: p.o. 15 min before formalin, licking time 20 to 25 min after formalin, >20 = inhibition less than 50% at 20 mg/kg p.o.; for ED50: po
Protocol: Mouse Formalin Test for Measurement of In Vivo Efficacy
Injection of diluted formalin into the hind paw of rats or mouse is known to elicit a biphasic pain related behaviour measured as time spent by licking/biting of the injured paw. The second phase is generally defined as pain related events detected in the 15-60 min. time interval after formalin injection. It is known that NMDA receptors are involved in the second phase of response to formalin injection and this behavioural response is sensitive to blockade of NMDA receptors [Dickenson, A. and Besson J.-M. (Eds.): Chapter 1, pp. 6-7: Animal models of Analgesia; and Chapter 8, pp. 180-183: Mechanism of Central Hypersensitivity: Excitatory Amino Acid Mechanisms and Their Control—In Pharmacology of Pain. Springer-Verlag (Berlin) 1997.] Therefore, we performed the second phase of formalin test to characterise the efficacy of compounds in vivo. Inhibition of the second phase of response is considered to indicate an analgesic effect against chemically-induced persistent pain [Hunskaar, S., et al.: Formalin Test in Mice, a Useful Technique for Evaluating Mild Analgesics, Journal of Neuroscience Methods, 14 (1985) 69-76.] Male albino Charles River NMRI mice (20-25 g) were used. Prior to the experiment any solid food was withdrawn for 16 hours but the animals had free access to 20% glucose solution. The animals were allowed a 1 hour acclimatisation period spent in a glass cylinder (cc. 15 cm in diameter), then moved to an identical cylinder with a mirror placed behind to facilitate observation. The test substances were suspended in 5% tween-80 (10 ml per kg body weight). and administered orally by gavage 15 min before the formalin injection (20 μl of 1% formalin in 0.9% saline injected subcutaneously into the dorsal surface of the right hindpaw). The time spent by licking and biting of the injected paw was measured from 20 to 25 min. after the formalin injection.

NR2B subunit = biological target: T1, NR2B subunit (Rattus norvegicus, UniProt P35439+Q00960); assay: [3H]-Ro 25,6981 binding assay on rat cerebral membranes
T1 construct: from tissue; host or cells: forebrain membranes of male Wistar rats
Protocol: Determining Binding of Compounds to NR2B Subunit by [^3H]-Ro 25,6981 Binding Assay
Briefly, membranes are isolated from the forebrain of male Wistar rats. They are incubated in the presence and absence of test compound for 2 hours at room temperature. […] The applied radioligand (^3H-Ro-25,6981) concentration is 4 nM.
(§1) wherein for NMDA IC50—IC50 is determined by the intracellular Ca^2+-concentartion assay on cortical neurons; and for Ro-binding IC50—IC50 is determined by the [^3H]-Ro 25,6981 binding assay on rat cerebral membranes.

[1] = biological target: T2, NMDA receptors (NR2B subunit containing) (Rattus norvegicus, UniProt P35439+Q00960); assay: Functional NMDA antagonist potency: intracellular calcium measurement in primary cultures of rat cortical neurons (fluorimeter plate reader); type: cell-based
T2 construct: endogenous in cells; host or cells: primary neocortical neurons from 17 day old Charles River rat embryos, 4-7 days in vitro
From the text: Assessing the Functional NMDA Antagonist Potency of Compounds in Primary Cultures of Rat Cortical Neurons Based on Measuring the Intracellular Calcium Concentration Using a Fluorimeter Plate Reader
It is known that during postnatal development the subunit composition of neuronal NMDA receptors is changing. […] According to data in the literature and to our own immunocytochemical examinations neuronal cells cultured for 4-7 days in vitro predominantly express the NR2B subunit, together with NR1 subunit. Therefore, functional test of NMDA antagonism in these cells reflects mainly an action on NR2B subunit containing receptors. Since NMDA receptors are known to be permeable to calcium ions upon excitation, the extent of NMDA receptor activation, and its inhibition by functional antagonists can be characterised by measuring the rise in the intracellular calcium concentration following agonist (NMDA) application onto the cells. Since there is very high sequence homology between rat and human NMDA receptors (99, 95, 97% for NR1, NR2A, and NR2B subunits, respectively), it is believed that there is little, if any, difference in their pharmacological sensitivity.
In: Protocols for Neural Cell Culture, eds: Fedoroff, S.; Richardson A., The Humana Press Inc., 13-38.] After isolation, the cells are plated onto standard 96-well microplates and the cultures are maintained in an atmosphere of 95% air-5% CO2 at 37° C. until testing.
The cultures are used for the intracellular calcium measurements after 4-7 days in vitro. […] Loading is stopped by washing twice with the solution used also during the measurement (140 mM NaCl, 5 mM KCl, 2 mM CaCl2, 5 mM HEPES [4-(2-hydroxyethyl)-1-piperazineethane-sulfonic acid], 5 mM HEPES-Na, 20 mM glucose, 10 μM glycine, pH=7.4). Then the test compound dissolved in the above solution (90 μl/well) is added. Intracellular calcium measurements are carried out with a plate reader fluorimeter. A rise is induced by application of 40 μM NMDA in Fluo-4-fluorescence that reflects the intracellular calcium concentration. Inhibitory potency of the test compound is assessed by measuring the reduction in the calcium elevation in the presence of different concentrations of the compound. After the measurement, a standard calibration procedure [Meth. Cell.
Inhibitory potency of a compound at a single concentration point is expressed as percent inhibition of the control NMDA response. Sigmoidal concentration-inhibition curves are fitted over the data and IC50 values are defined as the concentration that produces half of the maximal inhibition that could be achieved with the compound. Mean IC50 values are derived from at least three independent experiments.
as §1

[2] = rat forebrain membranes, 4 nM [3H]-Ro 25,6981, 2 hours at room temperature, read-out: Ro-binding IC50
[3] = rat cortical neurons 4-7 days in vitro, 40 μM NMDA, Fluo-4 intracellular Ca2+, read-out: NMDA IC50

T2 sequence (Q00960 27-1482, other chains not shown): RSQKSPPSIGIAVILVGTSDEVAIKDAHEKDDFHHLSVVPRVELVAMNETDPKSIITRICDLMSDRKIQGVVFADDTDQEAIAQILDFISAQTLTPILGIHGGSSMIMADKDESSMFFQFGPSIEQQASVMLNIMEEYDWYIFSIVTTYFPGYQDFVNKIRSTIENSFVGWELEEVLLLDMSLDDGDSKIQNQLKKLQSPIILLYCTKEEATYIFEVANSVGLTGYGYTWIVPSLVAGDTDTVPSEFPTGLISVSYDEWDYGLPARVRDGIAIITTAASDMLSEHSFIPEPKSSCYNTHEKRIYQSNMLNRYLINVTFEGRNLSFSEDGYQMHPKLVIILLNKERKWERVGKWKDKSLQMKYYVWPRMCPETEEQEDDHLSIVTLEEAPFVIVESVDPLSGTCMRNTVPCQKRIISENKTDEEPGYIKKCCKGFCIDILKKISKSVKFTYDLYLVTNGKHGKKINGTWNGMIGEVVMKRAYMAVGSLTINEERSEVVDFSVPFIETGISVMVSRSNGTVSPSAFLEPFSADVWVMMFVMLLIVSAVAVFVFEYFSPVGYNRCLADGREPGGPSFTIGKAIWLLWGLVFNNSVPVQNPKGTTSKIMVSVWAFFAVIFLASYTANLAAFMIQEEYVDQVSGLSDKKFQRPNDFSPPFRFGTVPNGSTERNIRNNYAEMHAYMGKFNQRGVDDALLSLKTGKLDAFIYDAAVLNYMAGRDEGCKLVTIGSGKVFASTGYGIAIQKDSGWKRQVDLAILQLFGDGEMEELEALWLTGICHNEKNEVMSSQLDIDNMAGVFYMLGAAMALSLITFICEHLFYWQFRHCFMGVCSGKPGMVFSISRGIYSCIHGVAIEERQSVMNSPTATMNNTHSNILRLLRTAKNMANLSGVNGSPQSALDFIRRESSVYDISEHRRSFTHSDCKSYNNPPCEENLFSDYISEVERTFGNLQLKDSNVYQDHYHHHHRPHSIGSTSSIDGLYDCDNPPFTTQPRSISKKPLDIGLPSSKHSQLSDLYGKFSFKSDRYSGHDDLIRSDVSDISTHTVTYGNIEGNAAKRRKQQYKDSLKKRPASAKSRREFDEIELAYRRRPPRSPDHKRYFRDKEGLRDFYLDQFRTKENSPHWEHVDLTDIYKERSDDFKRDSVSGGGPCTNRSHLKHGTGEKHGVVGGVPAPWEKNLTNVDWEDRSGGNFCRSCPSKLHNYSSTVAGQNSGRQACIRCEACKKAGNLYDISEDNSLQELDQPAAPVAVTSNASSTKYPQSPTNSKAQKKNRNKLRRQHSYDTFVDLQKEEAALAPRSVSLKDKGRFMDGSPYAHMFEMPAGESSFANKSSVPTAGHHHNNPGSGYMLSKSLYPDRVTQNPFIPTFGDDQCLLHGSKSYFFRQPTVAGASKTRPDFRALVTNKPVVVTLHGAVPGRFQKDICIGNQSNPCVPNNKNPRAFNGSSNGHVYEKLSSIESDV
T1 sequence (Q00960 27-1482, other chains not shown): as above

IC50 (NR2B subunit; [2])	IC50 [1, 3]	Compound	ED50 (NMRI mice)	also measured
–	–	O=c1[nH]c2ccc([S+]([O-])CCN3CCC(Cc4ccc(F)cc4)CC3)cc2o1 (centres unmarked) [CI-1041, 6-{2-[4-(4-fluoro-benzyl)-piperidin-1-yl]-ethanesulfinyl}-3H-benzooxazol-2-one, reference compound]	5.3 mg/kg	IC50 (NR2B subunit): 4 nM; IC50 [1]: 6.6 nM
–	–	C[C@@H]([C@@H](O)c1ccc(O)cc1)N1CCC(O)(c2ccccc2)CC1 [CP 101,606, (1S,2S)-1-(4-hydroxyphenyl)-2-(4-hydroxy-4-phenylpiperidine-1-yl)-1-propanol, reference compound]	> 20 mg/kg	–
3.3 nM	23 nM	Cc1ccc(CC2(O)CCN(CCOc3ccc(O)cc3)CC2)cc1 [Co-101244, 1-[2-(4-hydroxyphenoxy)ethyl]-4-hydroxy-4-(4-methylbenzyl)piperidine, reference compound]	> 20 mg/kg	–
8.4 nM	–	Oc1ccc(OCCN2CCC(Cc3ccc(F)cc3)CC2)cc1 [Co-111103, 1-[2-(4-hydroxyphenoxy)ethyl]-4-(4-fluorobenzyl)piperidine, reference compound]	> 20 mg/kg	–
–	–	O=C1Cc2cc(NC(=O)C(=O)N3CCC(Cc4ccc(F)cc4)CC3)ccc2N1 [Example 1, 2-[4-(4-Fluoro-benzyl)-piperidin-1-yl]-2-oxo-N-(2-oxo-2,3-dihydro-1H-indol-5-yl)-acetamide]	0.46 mg/kg	–
4.7 nM	0.7 nM	O=C(Nc1ccc2[nH]c(=O)[nH]c2c1)C(=O)N1CCC(Cc2ccc(F)cc2)CC1 [Example 2, 2-[4-(4-Fluoro-benzyl)-piperidin-1-yl]-2-oxo-N-(2-oxo-2,3-dihydro-1H-benzimidazol-5-yl)-acetamide]	–	–
18 nM	3.2 nM	O=C(Nc1ccc2[nH]c(=O)oc2c1)C(=O)N1CCC(Cc2ccc(F)cc2)CC1 [Example 3, 2-[4-(4-Fluoro-benzyl)-piperidin-1-yl]-2-oxo-N-(2-oxo-2,3-dihydro-benzoxazol-6-yl)-acetamide]	6.9 mg/kg	–
> 30000 nM	4710 nM	O=C(Nc1ccc2oc(=O)[nH]c2c1)C(=O)N1CCC(Cc2ccc(F)cc2)CC1 [Example 4, 2-[4-(4-Fluoro-benzyl)-piperidin-1-yl]-2-oxo-N-(2-oxo-2,3-dihydro-benzoxazol-5-yl)-acetamide]	–	–
4.4 nM	1.4 nM	O=C(Nc1ccc2[nH]c(=O)[nH]c2c1)C(=O)N1CCC(Cc2ccccc2)CC1 [Example 7, 2-(4-Benzyl-piperidin-1-yl)-2-oxo-N-(2-oxo-2,3-dihydro-1H-benzimidazol-5-yl)-acetamide]	–	–
5.5 nM	2.4 nM	O=C(Nc1ccc2[nH]c(=O)oc2c1)C(=O)N1CCC(Cc2ccccc2)CC1 [Example 8, 2-(4-Benzyl-piperidin-1-yl)-2-oxo-N-(2-oxo-2,3-dihydro-benzoxazol-6-yl)-acetamide]	–	–
614 nM	1010 nM	CS(=O)(=O)Nc1cccc(NC(=O)C(=O)N2CCC(Cc3ccccc3)CC2)c1 [Example 12, 2-(4-Benzyl-piperidin-1-yl)-N-(3-methanesulfonylamino-phenyl)-2-oxo-acetamide]	–	–
214 nM	113 nM	O=C1COc2cc(NC(=O)C(=O)N3CCC(Cc4ccccc4)CC3)ccc2N1 [Example 24, 2-(4-Benzyl-piperidin-1-yl)-2-oxo-N-(3-oxo-3,4-dihydro-2H-benzo [1,4]oxazin-7-yl)-acetamide]	–	–
–	–	O=C(Nc1ccc2[nH]c(=O)oc2c1)C(=O)N1CCC(Oc2ccc(Cl)cc2)CC1 [Example 31, 2-[4-(4-Chloro-phenoxy)-piperidin-1-yl]-2-oxo-N-(2-oxo-2,3-dihydro-benzoxazol-6-yl)-acetamide]	4.4 mg/kg	–
–	–	Cc1ccc(CC2CCN(C(=O)C(=O)Nc3ccc4c(c3)CC(=O)N4)CC2)cc1 [Example 101, 2-[4-[4-Methyl-benzyl)-piperidin-1-yl]-2-oxo-N-(2-oxo-2,3-dihydro-1H-indol-5-yl)-acetamide]	0.48 mg/kg	–
29 nM	164 nM	O=C(CN1CCC(Cc2ccccc2)CC1)Nc1ccc2c(c1)CC(=O)N2 [Example 143, 2-(4-Benzyl-piperidin-1-yl)-N-(2-oxo-2,3-dihydro-1H-indol-5-yl)-acetamide]	–	–
1.7 nM	6 nM	O=C(CN1CCC(Cc2ccccc2)CC1)Nc1ccc2[nH]c(=O)oc2c1 [Example 146, 2-(4-Benzyl-piperidin-1-yl)-N-(2-oxo-2,3-dihydro-benzoxazol-6-yl)-acetamide]	–	–
121 nM	1330 nM	O=C(CN1CCC(Cc2ccccc2)CC1)Nc1ccc2[nH]ncc2c1 [Example 147, 2-(4-Benzyl-piperidin-1-yl)-N-(1H-indazol-5-yl)-acetamide]	–	–
–	–	CC(C(=O)Nc1ccc2[nH]c(=O)oc2c1)N1CCC(Cc2ccccc2)CC1 (centres unmarked) [Example 161, 2-(4-Benzyl-piperidin-1-yl)-N-(2-oxo-2,3-dihydro-1H-benzoxazol-6-yl)-propionamide]	2.4 mg/kg	–
–	–	O=C(CN1CCC(Cc2ccccc2)CC1)Nc1ccc(O)cc1 [Example 192, 2-(4-Benzyl-piperidin-1-yl)-N-(4-hydroxy-phenyl)-acetamide]	17 mg/kg	–
91 nM	48 nM	O=C(CNc1ccc2[nH]c(=O)[nH]c2c1)N1CCC(Cc2ccc(F)cc2)CC1 [Example 197, 5-{2-[4-(4-Fluoro-benzyl)-piperidin-1-yl]-2-oxo-ethylamino}-1,3-dihydro-benzoimidazol-2-one]	–	–
972 nM	533 nM	O=C(CNc1ccc2[nH]ncc2c1)N1CCC(Cc2ccc(F)cc2)CC1 [Example 199, 1-[4-(4-Fluoro-benzyl)-piperidin-1-yl]-2-(1H-indazol-5-yl-amino)-ethanone]	–	–
–	–	C[C@@H](CN1CCC(Cc2ccccc2)CC1)[C@@H](O)c1ccc(O)cc1 [Ro 25.6981, R—(R*,S*)-1-(4-hydroxyphenyl)-2-methyl-3-[4-(phenylmethyl)piperidin-1-yl]-1-propanol, reference compound]	> 20 mg/kg	IC50 (NR2B subunit): 5.9 nM

Compound	IC50 (NR2B subunit; [2])	IC50 [1, 3]	ED50 (NMRI mice)	also measured
O=C(CCN1CCC(Cc2ccc(F)cc2)CC1)c1ccc2[nH]c(=O)oc2c1 [EMD 95885, reference compound]	7.2 nM	35 nM	–	ED50 (mg/kg p.o.) (NMRI mice): 5.9 mg/kg
